Converted amounts (≈) assume the structure as drawn.
Legend:
[1] = target: T1, glucocerebrosidase (Gcase) (Homo sapiens, UniProt P04062); assay: Glucocerebrosidase (Gcase) activation assay, 4-methylumbelliferyl-beta-D-glucopyranoside substrate, fluorescence; assay type: biochemical; conditions: 10 nM GCase, 100 nM saposin C; for activation at 0.1 µM / activation at 1 µM: 0.25 h; for activation at 0.1 µM: pH 4.7, test compound at 0.1 μM, read-out: Percent Gcase Activation 0.1 μM Test Compound; for activation at 1 µM: pH 4.7, test compound at 1.0 μM, read-out: Percent Gcase Activation 1 μM Test Compound; for Percent Gcase Activation 0.1 μM Test Compound: test compound at 0.1 μM; for Percent Gcase Activation 0.1 μM Test Compound / Percent Gcase Activation 1 μM Test Compound: pH 4.7; for Percent Gcase Activation 1 μM Test Compound: test compound at 1.0 μM
T1 sequence (P04062 40-536): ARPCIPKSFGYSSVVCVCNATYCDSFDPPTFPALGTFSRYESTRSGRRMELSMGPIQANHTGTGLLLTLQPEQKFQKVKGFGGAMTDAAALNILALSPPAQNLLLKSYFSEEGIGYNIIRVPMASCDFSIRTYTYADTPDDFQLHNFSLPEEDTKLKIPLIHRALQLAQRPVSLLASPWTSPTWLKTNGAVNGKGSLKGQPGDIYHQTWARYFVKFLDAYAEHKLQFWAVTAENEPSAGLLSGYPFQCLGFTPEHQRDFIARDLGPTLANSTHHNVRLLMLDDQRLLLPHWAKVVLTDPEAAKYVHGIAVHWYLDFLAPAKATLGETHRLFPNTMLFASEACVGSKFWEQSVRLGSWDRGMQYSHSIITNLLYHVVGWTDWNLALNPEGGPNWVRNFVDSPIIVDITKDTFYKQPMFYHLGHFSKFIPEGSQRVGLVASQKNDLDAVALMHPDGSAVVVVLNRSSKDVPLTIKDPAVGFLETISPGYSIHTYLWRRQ
Description: The ability of exemplary compounds to activate glucocerebrosidase (Gcase) was measured.
A 484 μL aliquot of a 1.0 mg/mL solution of phosphatidylserine (PS) (Sigma P7769) in chloroform was evaporated under a stream of nitrogen for 1 hour. The lipid film was dissolved over 4 minutes of vigorous vortexing in 40 mL of 176 mM K2HPO4/50 mM citric acid (pH 4.7) containing 7.5 μL of triton X-100, resulting in a mixed micellar preparation with a composition of 0.32 mM triton and 0.37 mol % PS. 4-Methylumbelliferyl-beta-D-glucopyranoside (ACROS-337025000) was dissolved in the micellar solution to a final concentration of 2 mM for use as the reaction substrate.
Test compounds were diluted to the desired concentrations with dimethylsulfoxide (DMSO) from 10 mM stocks, and 0.41 μL of the DMSO compound mixture was added to 100 μL of micellar solution containing 10 nM GCase and 100 nM saposin C (Enzo ALX-201-262-C050). Pre-incubation was allowed to occur for 30 minutes at room temperature, after which the reaction was initiated by combining 25 μL of substrate solution with 25 μL of compound/GCase/saposin mixture. The reaction proceeded for 15 minutes at room temperature and was stopped by adding 150 μL of 1M glycine, pH 12.5. The endpoint of the reaction was monitored by measuring fluorescence intensity (excitation: 365 nm; emission: 440 nm) on a SpectraMax i3 instrument (Molecular Devices). Test compounds were screened at 1.0 and 0.1 μM final concentration, and subsequent 8-point dose response curves were obtained using 3-fold dilutions from a maximum final concentration of 5 μM.
For experiments in which the test compound was used at a concentration of 1.0 μM, the symbol “+” indicates less than 30% Gcase activation; the symbol “++” indicates Gcase activation in the range of 30% up to 60%; and the symbol “+++” indicates Gcase activation greater than 60%. For experiments in which the test compound was used at a concentration of 0.1 μM, the symbol “*” indicates less than 10% Gcase activation; the symbol “**” indicates Gcase activation in the range of 10% up to 20%; and the symbol “***” indicates greater than 20% Gcase activation.

[2] = Compound solubility in water; assay type: physicochemical

Structure (SMILES) | activation at 0.1 µM [1] | activation at 1 µM [1] | solubility [2] | Percent Gcase Activation 0.1 μM Test Compound [1] | Percent Gcase Activation 1 μM Test Compound [1] | Compound Solubility in Water [2]
CCC(NC(=O)c1ccn2c(C)cc(C)nc12)c1ccc2c(c1)OCCO2 (stereo not drawn) [IV-62] | 10 to 20% | > 60% | 1.1 µg/mL (≈ 3.01 µM) | – | – | –
Cc1cc(C)n2ccc(C(=O)NC(CC3CCC3)c3ccccc3)c2n1 (stereo not drawn) [IV-41] | > 20% | > 60% | 0.5 µg/mL (≈ 1.44 µM) | – | – | –
Cc1cc(-c2ccc(F)cc2)nc2c(C(=O)N[C@@H](C)C3CC3)ccn12 [III-30] | > 20% | > 60% | 0.1 µg/mL (≈ 0.296 µM) | – | – | –
COC1CCC(Nc2cc(C)n3ccc(C(=O)NC(C)(C)C4CC4)c3n2)CC1 (stereo not drawn) [II1-37] | < 10% | 30 to 60% | 10.2 µg/mL (≈ 26.5 µM) | – | – | –
COCc1cc(C)nc2c(C(=O)N[C@H]3CC[C@H](OCC(C)C)CC3)ccn12 [IV-3] | > 20% | > 60% | 15.9 µg/mL (≈ 42.6 µM) | – | – | –
Cc1cc(C)n2ccc(C(=O)NC3(C4CC4)CC3)c2n1 [III-22] | 10 to 20% | > 60% | 21.4 µg/mL (≈ 79.5 µM) | – | – | –
Cc1cc(C)n2ccc(C(=O)NC(C)c3cccc4ccccc34)c2n1 (stereo not drawn) [IV-26] | – | – | – | ** (Gcase activation in the range of 10% up to 20%) | +++ (Gcase activation greater than 60%) | 0.2 µg/mL
Cc1cc(C)n2ccc(C(=O)N[C@@H](C)c3ccc(Cl)cc3)c2n1 [IV-46] | > 20% | > 60% | 0.4 µg/mL (≈ 1.22 µM) | – | – | –
Cc1cc(-c2cocn2)nc2c(C(=O)N[C@H]3CCCc4ccccc43)ccn12 [III-28] | < 10% | 30 to 60% | 1.4 µg/mL (≈ 3.76 µM) | – | – | –
Cc1cc(C)n2ccc(C(=O)NC(C)C3(c4ccccc4)CCCC3)c2n1 (stereo not drawn) [IV-73] | > 20% | > 60% | 1.5 µg/mL (≈ 4.15 µM) | – | – | –
Cc1cc(-c2cccc(C(N)=O)c2)nc2c(C(=O)NC(C3CC3)C(F)(F)F)ccn12 (stereo not drawn) [IV-7] | > 20% | > 60% | 0.4 µg/mL (≈ 0.961 µM) | – | – | –
CCc1cc(C)n2ccc(C(=O)N[C@H]3CC[C@H](OC(C)(C)C)CC3)c2n1 [IV-6] | 10 to 20% | > 60% | 7.9 µg/mL (≈ 22.1 µM) | – | – | –
COCC(NC(=O)c1ccn2c(C)cc(C)nc12)c1ccccc1 (stereo not drawn) [III-20] | < 10% | > 60% | 13.7 µg/mL (≈ 42.4 µM) | – | – | –
Cc1cc(C)n2cc(C3CC3)c(C(=O)NC(C)(C)C3CC3)c2n1 [III-25] | < 10% | 30 to 60% | 0.3 µg/mL (≈ 0.963 µM) | – | – | –
Cc1cc(C)n2ccc(C(=O)NC(C)(C)CC3CC3)c2n1 [III-19] | > 20% | > 60% | 14.7 µg/mL (≈ 51.5 µM) | – | – | –
Cc1cc(-c2cccnc2)nc2c(C(=O)N[C@H]3CC[C@H](OCC(C)C)CC3)ccn12 [III-58] | > 20% | > 60% | 1.9 µg/mL (≈ 4.67 µM) | – | – | –
CCCO[C@H]1CC[C@H](NC(=O)c2ccn3c(C)cc(-c4cccnc4)nc23)CC1 [III-57] | 10 to 20% | > 60% | 14.9 µg/mL (≈ 38 µM) | – | – | –
Cc1cc(C(F)F)nc2c(C(=O)N[C@H]3CC[C@H](OCC(C)(C)C)CC3)ccn12 [IV-14] | > 20% | > 60% | 0.8 µg/mL (≈ 2.03 µM) | – | – | –
COc1cccc([C@@H](C)NC(=O)c2ccn3c(C)cc(C)nc23)c1 [IV-32] | 10 to 20% | > 60% | 7.8 µg/mL (≈ 24.1 µM) | – | – | –
Cc1cc(C)n2ccc(C(=O)NC(Cc3ccccc3)c3ccccc3)c2n1 (stereo not drawn) [IV-38] | – | – | 0.2 µg/mL (≈ 0.541 µM) | – | – | –
CO[C@H]1CC[C@H](NC(=O)c2ccn3c(C)cc(-c4ccc(F)cc4)nc23)CC1 [III-48] | 10 to 20% | > 60% | 0.9 µg/mL (≈ 2.36 µM) | – | – | –
COc1ccccc1[C@H](C)NC(=O)c1ccn2c(C)cc(C)nc12 [IV-27] | > 20% | > 60% | 3 µg/mL (≈ 9.28 µM) | – | – | –

Structure (SMILES) | activation at 0.1 µM [1] | activation at 1 µM [1] | solubility [2] | Percent Gcase Activation 0.1 μM Test Compound [1] | Percent Gcase Activation 1 μM Test Compound [1] | Compound Solubility in Water [2]
CCCCO[C@H]1CC[C@H](NC(=O)c2ccn3c(C)cc(-c4cccnc4)nc23)CC1 [III-59] | > 20% | > 60% | 1.9 µg/mL (≈ 4.67 µM) | – | – | –
CCCCO[C@H]1CC[C@H](NC(=O)c2ccn3c(C)cc(N4CCOCC4)nc23)CC1 [IV-15] | 10 to 20% | > 60% | 8.4 µg/mL (≈ 20.3 µM) | – | – | –
Cc1cc(C)n2c(C)cc(C(=O)N[C@@H](C)C3CC3)c2n1 [III-26] | 10 to 20% | > 60% | 8.6 µg/mL (≈ 31.7 µM) | – | – | –
Cc1cc(C(F)F)nc2c(C(=O)N[C@H]3CC[C@H](OCC(C)C)CC3)ccn12 [IV-13] | > 20% | > 60% | 5 µg/mL (≈ 13.2 µM) | – | – | –
CCC(NC(=O)c1ccn2c(C)cc(C)nc12)c1cc(C)ccn1 (stereo not drawn) [IV-54] | < 10% | < 30% | 23.2 µg/mL (≈ 72 µM) | – | – | –
Cc1cc(N2CCC(F)(F)CC2)nc2c(C(=O)NC(C)(C)C3CC3)ccn12 [III-44] | 10 to 20% | > 60% | 1.4 µg/mL (≈ 3.72 µM) | – | – | –
COc1ccc([C@@H](C)NC(=O)c2ccn3c(C)cc(C)nc23)cc1 [IV-24] | < 10% | > 60% | 5.3 µg/mL (≈ 16.4 µM) | – | – | –
Cc1cc(F)nc2c(C(=O)NC(C)(C)C3CC3)ccn12 [III-17] | 10 to 20% | > 60% | 6.3 µg/mL (≈ 22.9 µM) | – | – | –
Cc1cc(C)n2ccc(C(=O)NC(CC(C)C)c3ccccc3)c2n1 (stereo not drawn) [IV-66] | > 20% | > 60% | 1 µg/mL (≈ 2.98 µM) | – | – | –
Cc1cc(C)n2ccc(C(=O)NC3(c4ccccc4)CC3)c2n1 [III-18] | 10 to 20% | > 60% | 7.7 µg/mL (≈ 25.2 µM) | – | – | –
CCCO[C@H]1CC[C@H](NC(=O)c2ccn3c(C)cc(C(F)F)nc23)CC1 [IV-12] | 10 to 20% | > 60% | 18.5 µg/mL (≈ 50.6 µM) | – | – | –
CCC(NC(=O)c1ccn2c(C)cc(C)nc12)c1nc(C2CC2)no1 (stereo not drawn) [IV-58] | < 10% | 30 to 60% | 18.5 µg/mL (≈ 54.5 µM) | – | – | –
Cc1cc(C)n2ccc(C(=O)NC(C)(C)C3CC3)c2n1 [III-23] | > 20% | > 60% | 18.7 µg/mL (≈ 68.9 µM) | – | – | –
CC(C)(NC(=O)c1ccn2ccc(-c3ccc(F)cc3)nc12)C1CC1 [III-46] | < 10% | 30 to 60% | 0.3 µg/mL (≈ 0.889 µM) | – | – | –
Cc1cc(-c2cccnc2)nc2c(C(=O)NC(C3CC3)C(F)(F)F)ccn12 (stereo not drawn) [III-55] | > 20% | > 60% | 2.9 µg/mL (≈ 7.75 µM) | – | – | –
Cc1nc2c(C(=O)N[C@H]3CC[C@H](OC(C)(C)C)CC3)ccn2c2c1CCC2 [III-70] | < 10% | < 30% | 1.5 µg/mL (≈ 4.06 µM) | – | – | –
Cc1cc(C)n2ccc(C(=O)NC(C)c3cccc4c3OCCCO4)c2n1 (stereo not drawn) [IV-53] | 10 to 20% | > 60% | 5.1 µg/mL (≈ 14 µM) | – | – | –
Cc1cc(C)n2ccc(C(=O)NC(C)C3CCCCC3)c2n1 (stereo not drawn) [III-63] | – | – | – | *** (greater than 20% Gcase activation) | +++ (Gcase activation greater than 60%) | 4.2 µg/mL
C[C@H](NC(=O)c1ccn2cc(-c3ccc(F)cc3)cnc12)C1CC1 [III-49] | < 10% | < 30% | 0.3 µg/mL (≈ 0.928 µM) | – | – | –
CNc1cc(C)n2ccc(C(=O)NC(C)(C)C3CC3)c2n1 [III-10] | > 20% | > 60% | 11 µg/mL (≈ 38.4 µM) | – | – | –
CCC(NC(=O)c1ccn2c(C)cc(C)nc12)c1ccc(F)cc1 (stereo not drawn) [IV-56] | > 20% | > 60% | 2 µg/mL (≈ 6.15 µM) | – | – | –
Cc1cc(C)n2ccc(C(=O)NC(Cc3ccccc3)c3ccccc3)c2n1 (stereo not drawn) [IV-81] | > 20% | > 60% | – | – | – | –

— US11124516B2, “Pyrrolo[1,2-A]pyrimidinyl carboxamide compounds and their use in the treatment of medical disorders” (Bial—Biotech Investments, Inc., priority 2016, dated 2021)
